ChEMBL document CHEMBL1147899, “Raman, FT-IR, NMR spectroscopic data and antimicrobial activity of bis[micro2-(benzimidazol-2-yl)-2-ethanethiolato-N,S,S-chloro-palladium(II)] dimer, [(micro2-CH2CH2NHNCC6H4)PdCl]2.C2H5OH complex” (2007)
≈ marks a conversion by molar mass, not a printed value.

Key:
Assay type in all cases: functional
Proteus vulgaris [1] = assay: Antibacterial activity against Proteus vulgaris ATCC 8427 by after 24 hrs dilution method; settings: ATCC 8427, 24 h
Staphylococcus aureus [2] = assay: Antibacterial activity against Staphylococcus aureus ATCC 6538 after 24 hrs by disk diffusion method
[3] = test system: Hanseniaspora guilliermondii; assay: Antifungal activity against Hanseniaspora guilliermondii DSM 3432 after 72 hrs by disk diffusion method
Pseudomonas aeruginosa [4] = assay: Antibacterial activity against Pseudomonas aeruginosa ATCC 27853 after 24 hrs by disk diffusion method
[5] = test system: Mycolicibacterium smegmatis; assay: Antibacterial activity against Mycobacterium smegmatis CCM 2067 after 24 hrs by dilution method; settings: CCM 2067, 24 h
Rhodotorula mucilaginosa [6] = assay: Antifungal activity against Rhodotorula rubra DSM 70403 after 72 hrs by disk diffusion method
Klebsiella pneumoniae [7] = assay: Antibacterial activity against Klebsiella pneumoniae UC57 after 24 hrs by disk diffusion method
Bacillus cereus [8] = assay: Antibacterial activity against Bacillus cereus ATCC 7064 after 24 hrs by disk diffusion method
Listeria monocytogenes [9] = assay: Antibacterial activity against Listeria monocytogenes ATCC 15313 after 24 hrs by dilution method; settings: ATCC 15313, 24 h
Kluyveromyces marxianus [10] = assay: Antifungal activity against Kluyveromyces fragilis NRRL 2415 after 48 hrs by dilution method; settings: NRRL 2415, 48 h
Klebsiella pneumoniae [11] = assay: Antibacterial activity against Klebsiella pneumoniae UC57 after 24 hrs by dilution method
Proteus vulgaris [12] = assay: Antibacterial activity against Proteus vulgaris ATCC 8427 after 24 hrs by disk diffusion method
Bacillus cereus [13] = assay: Antibacterial activity against Bacillus cereus ATCC 7064 after 24 hrs by dilution method; settings: ATCC 7064, 24 h
Micrococcus luteus [14] = assay: Antibacterial activity against Micrococcus luteus La 2971 after 24 hrs by disk diffusion method
Kluyveromyces marxianus [15] = assay: Antifungal activity against Kluyveromyces fragilis NRRL 2415 after 72 hrs by disk diffusion method
[16] = test system: Mycolicibacterium smegmatis; assay: Antibacterial activity against Mycobacterium smegmatis CCM 2067 after 24 hrs by disk diffusion method
Escherichia coli [17] = assay: Antibacterial activity against Escherichia coli ATCC 11230 after 24 hrs by dilution method; settings: ATCC 11230, 24 h
Listeria monocytogenes [18] = assay: Antibacterial activity against Listeria monocytogenes ATCC 15313 after 24 hrs by disk diffusion method
[19] = test system: Hanseniaspora guilliermondii; assay: Antifungal activity against Hanseniaspora guilliermondii DSM 3432 after 48 hrs by dilution method; settings: DSM 3432, 48 h
Micrococcus luteus [20] = assay: Antibacterial activity against Micrococcus luteus La 2971 after 24 hrs by dilution method
Escherichia coli [21] = assay: Antibacterial activity against Escherichia coli ATCC 11230 after 24 hrs by disk diffusion method
Pseudomonas aeruginosa [22] = assay: Antibacterial activity against Pseudomonas aeruginosa ATCC 27853 after 24 hrs by dilution method; settings: ATCC 27853, 24 h
Debaryomyces hansenii [23] = assay: Antifungal activity against Debaryomyces hansenii DSM 70238 after 72 hrs by disk diffusion method
Rhodotorula mucilaginosa [24] = assay: Antifungal activity against Rhodotorula rubra DSM 70403 after 48 hrs by dilution method; settings: DSM 70403, 48 h
Staphylococcus aureus [25] = assay: Antibacterial activity against Staphylococcus aureus ATCC 6538 after 24 hrs by dilution method; settings: ATCC 6538, 24 h
Debaryomyces hansenii [26] = assay: Antifungal activity against Debaryomyces hansenii DSM 70238 after 48 hrs by dilution method; settings: DSM 70238, 48 h
Candida albicans [27] = assay: Antifungal activity against Candida albicans ATCC 10231 after 48 hrs by dilution method; settings: ATCC 10231, 48 h
Candida albicans [28] = assay: Antifungal activity against Candida albicans ATCC 10231 after 72 hrs by disk diffusion method

Row | Compound | MIC (Proteus vulgaris [1]) [µg/mL] | inhibition zone (IZ) (Staphylococcus aureus [2]) [mm] | inhibition zone (IZ) [3] [mm] | inhibition zone (IZ) (Pseudomonas aeruginosa [4]) [mm] | MIC [5] [µg/mL] | inhibition zone (IZ) (Rhodotorula mucilaginosa [6]) [mm] | inhibition zone (IZ) (Klebsiella pneumoniae [7]) [mm] | inhibition zone (IZ) (Bacillus cereus [8]) [mm] | MIC (Listeria monocytogenes [9]) [µg/mL] | MIC (Kluyveromyces marxianus [10]) [µg/mL] | MIC (Klebsiella pneumoniae [11]) [µg/mL] | inhibition zone (IZ) (Proteus vulgaris [12]) [mm] | MIC (Bacillus cereus [13]) [µg/mL] | inhibition zone (IZ) (Micrococcus luteus [14]) [mm] | inhibition zone (IZ) (Kluyveromyces marxianus [15]) [mm] | inhibition zone (IZ) [16] [mm] | MIC (Escherichia coli [17]) [µg/mL] | inhibition zone (IZ) (Listeria monocytogenes [18]) [mm] | MIC [19] [µg/mL] | MIC (Micrococcus luteus [20]) [µg/mL] | also measured
1 | c1ccc2[nH]c(CCSSCCc3nc4ccccc4[nH]3)nc2c1 | 12.5 (≈ 35.3 µM) | 14 | 12 | 11 | 12.5 (≈ 35.3 µM) | 12 | 11 | 10 | 12.5 (≈ 35.3 µM) | 6.25 (≈ 17.6 µM) | 50 (≈ 141 µM) | 14 | 100 (≈ 282 µM) | 12 | 15 | 13 | 50 (≈ 141 µM) | 13 | 12.5 (≈ 35.3 µM) | 25 (≈ 70.5 µM) | inhibition zone (IZ) (Escherichia coli [21]): 12 mm; MIC (Pseudomonas aeruginosa [22]): 50 µg/mL (≈ 141 µM); inhibition zone (IZ) (Debaryomyces hansenii [23]): 11 mm; MIC (Rhodotorula mucilaginosa [24]): 25 µg/mL (≈ 70.5 µM); MIC (Staphylococcus aureus [25]): 12.5 µg/mL (≈ 35.3 µM); MIC (Debaryomyces hansenii [26]): 25 µg/mL (≈ 70.5 µM); MIC (Candida albicans [27]): 12.5 µg/mL (≈ 35.3 µM); inhibition zone (IZ) (Candida albicans [28]): 14 mm
2 | Cl.c1ccc2[nH]c(CCSSCCc3nc4ccccc4[nH]3)nc2c1 | 6.25 | 16 | 16 | 12 | 6.25 | 15 | 12 | 12 | 12.5 | 3.12 | 25 | 16 | 50 | 14 | 18 | 16 | 12.5 | 12 | 6.25 | 12.5 | inhibition zone (IZ) (Escherichia coli [21]): 14 mm; MIC (Pseudomonas aeruginosa [22]): 25 µg/mL; inhibition zone (IZ) (Debaryomyces hansenii [23]): 14 mm; MIC (Rhodotorula mucilaginosa [24]): 12.5 µg/mL; MIC (Staphylococcus aureus [25]): 12.5 µg/mL; MIC (Debaryomyces hansenii [26]): 12.5 µg/mL; MIC (Candida albicans [27]): 6.25 µg/mL; inhibition zone (IZ) (Candida albicans [28]): 17 mm
